Laboratory results as given in ChEMBL document CHEMBL5465560, “Selectivity Literature for EUbOPEN Chemogenomic Library” (2024).

Key:
[1] = target: Ribosomal protein S6 kinase beta-2 (Homo sapiens) (UniProt Q9UBS0); experiment: Selectivity interaction (Kinase panel (KiNativ target engagement assay in Jurkat cells)) EUB0001635a RPS6KB2; format: cell-based; settings: Selectivity number of off-targets 0.0, Selectivity number of targets 233.0, Source Knowledge https://www.sciencedirect.com/science/article/pii/S2451945619300674?via%3Dihub, at 1 µM
[2] = target: Serine/threonine-protein kinase 32A (Homo sapiens) (UniProt Q8WU08); experiment: Selectivity interaction (KinomeScan (DiscoverX)) EUB0000045b STK32A
[3] = test system: Epidermal growth factor receptor (Homo sapiens), P00533 [T790M]; experiment: (§1) Selectivity interaction (KinomeScan (DiscoverX)) EUB0000045b EGFR
[4] = target: Epidermal growth factor receptor (Homo sapiens, UniProt P00533); experiment: as §1
[5] = test system: Epidermal growth factor receptor (Homo sapiens), P00533 [L858R]; experiment: as §1
[6] = test system: Epidermal growth factor receptor (Homo sapiens), P00533 [UNDEFINED MUTATION]; experiment: as §1
[7] = test system: Epidermal growth factor receptor (Homo sapiens), P00533 [G719C]; experiment: as §1
Chain of Epidermal growth factor receptor (Homo sapiens), P00533 [G719C] (P00533 whole entry G719C): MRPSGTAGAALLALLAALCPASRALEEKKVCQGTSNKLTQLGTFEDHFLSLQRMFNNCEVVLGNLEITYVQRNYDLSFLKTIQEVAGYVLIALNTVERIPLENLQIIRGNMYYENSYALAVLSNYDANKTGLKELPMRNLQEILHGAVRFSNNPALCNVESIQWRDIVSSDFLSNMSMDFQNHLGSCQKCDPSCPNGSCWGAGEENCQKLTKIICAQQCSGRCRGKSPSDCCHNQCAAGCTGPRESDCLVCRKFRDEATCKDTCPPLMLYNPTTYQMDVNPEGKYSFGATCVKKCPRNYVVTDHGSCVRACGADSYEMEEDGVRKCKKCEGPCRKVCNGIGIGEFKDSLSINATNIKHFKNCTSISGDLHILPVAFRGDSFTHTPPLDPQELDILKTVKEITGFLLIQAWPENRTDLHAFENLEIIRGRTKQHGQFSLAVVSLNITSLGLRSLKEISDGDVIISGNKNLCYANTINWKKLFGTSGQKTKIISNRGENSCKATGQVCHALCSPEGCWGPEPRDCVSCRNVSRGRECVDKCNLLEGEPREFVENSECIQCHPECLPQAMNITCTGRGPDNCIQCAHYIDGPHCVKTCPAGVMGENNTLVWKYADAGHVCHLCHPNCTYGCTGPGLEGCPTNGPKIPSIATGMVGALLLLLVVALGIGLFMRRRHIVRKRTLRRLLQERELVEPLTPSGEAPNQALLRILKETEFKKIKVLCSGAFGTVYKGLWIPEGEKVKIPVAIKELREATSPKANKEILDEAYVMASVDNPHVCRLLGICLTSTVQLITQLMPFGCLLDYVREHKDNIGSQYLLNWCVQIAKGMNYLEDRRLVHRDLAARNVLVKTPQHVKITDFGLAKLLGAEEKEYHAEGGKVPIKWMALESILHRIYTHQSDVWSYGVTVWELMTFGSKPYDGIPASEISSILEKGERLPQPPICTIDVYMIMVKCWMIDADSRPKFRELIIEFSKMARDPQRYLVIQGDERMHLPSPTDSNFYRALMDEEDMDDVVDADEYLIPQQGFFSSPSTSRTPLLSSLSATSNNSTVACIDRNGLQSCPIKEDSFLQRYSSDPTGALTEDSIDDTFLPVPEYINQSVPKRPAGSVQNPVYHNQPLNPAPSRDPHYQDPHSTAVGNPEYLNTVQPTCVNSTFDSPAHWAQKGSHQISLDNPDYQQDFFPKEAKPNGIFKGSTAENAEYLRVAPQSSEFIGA

[8] = test system: Epidermal growth factor receptor (Homo sapiens), P00533 [L858R,T790M]; experiment: as §1
Chain of Epidermal growth factor receptor (Homo sapiens), P00533 [L858R,T790M] (P00533 whole entry T790M/L858R, looked up): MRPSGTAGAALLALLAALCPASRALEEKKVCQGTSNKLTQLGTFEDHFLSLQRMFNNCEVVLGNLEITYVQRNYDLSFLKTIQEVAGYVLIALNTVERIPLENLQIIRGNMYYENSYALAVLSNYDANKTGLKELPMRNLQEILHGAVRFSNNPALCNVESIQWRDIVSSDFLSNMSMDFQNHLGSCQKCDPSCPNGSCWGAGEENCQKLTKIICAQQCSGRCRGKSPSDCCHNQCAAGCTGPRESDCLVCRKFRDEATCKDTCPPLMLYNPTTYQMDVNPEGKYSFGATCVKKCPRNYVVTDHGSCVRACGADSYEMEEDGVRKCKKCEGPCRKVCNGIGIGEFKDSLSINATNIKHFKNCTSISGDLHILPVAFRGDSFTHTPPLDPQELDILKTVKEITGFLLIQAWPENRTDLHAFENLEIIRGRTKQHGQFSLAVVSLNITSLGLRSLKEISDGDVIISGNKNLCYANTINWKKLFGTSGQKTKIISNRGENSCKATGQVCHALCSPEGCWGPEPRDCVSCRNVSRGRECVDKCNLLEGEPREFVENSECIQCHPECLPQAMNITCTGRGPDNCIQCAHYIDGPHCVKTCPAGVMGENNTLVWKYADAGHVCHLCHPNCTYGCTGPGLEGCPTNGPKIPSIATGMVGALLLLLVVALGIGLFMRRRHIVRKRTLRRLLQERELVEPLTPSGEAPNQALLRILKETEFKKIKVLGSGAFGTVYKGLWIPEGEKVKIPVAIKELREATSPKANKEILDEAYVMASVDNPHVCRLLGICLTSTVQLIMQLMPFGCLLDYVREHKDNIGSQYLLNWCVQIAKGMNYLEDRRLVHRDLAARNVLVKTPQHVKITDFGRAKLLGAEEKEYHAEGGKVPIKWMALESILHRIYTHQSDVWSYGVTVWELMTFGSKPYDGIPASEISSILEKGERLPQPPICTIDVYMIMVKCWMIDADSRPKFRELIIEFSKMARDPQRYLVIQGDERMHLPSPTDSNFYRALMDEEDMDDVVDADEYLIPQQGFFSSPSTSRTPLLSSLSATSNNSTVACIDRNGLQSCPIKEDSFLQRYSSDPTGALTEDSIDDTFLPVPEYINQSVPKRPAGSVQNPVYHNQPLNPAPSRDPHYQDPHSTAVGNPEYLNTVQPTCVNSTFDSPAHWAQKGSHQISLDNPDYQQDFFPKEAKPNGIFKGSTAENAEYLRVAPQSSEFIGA

[9] = test system: Epidermal growth factor receptor (Homo sapiens), P00533 [L861Q]; experiment: as §1
[10] = test system: Epidermal growth factor receptor (Homo sapiens), P00533 [G719S]; experiment: as §1
[11] = test system: eIF-2-alpha kinase GCN2 (Homo sapiens), Q9P2K8 [S808G]; experiment: Selectivity interaction (KinomeScan (DiscoverX)) EUB0000045b EIF2AK4
Chain of eIF-2-alpha kinase GCN2 (Homo sapiens), Q9P2K8 [S808G] (Q9P2K8 whole entry S808G): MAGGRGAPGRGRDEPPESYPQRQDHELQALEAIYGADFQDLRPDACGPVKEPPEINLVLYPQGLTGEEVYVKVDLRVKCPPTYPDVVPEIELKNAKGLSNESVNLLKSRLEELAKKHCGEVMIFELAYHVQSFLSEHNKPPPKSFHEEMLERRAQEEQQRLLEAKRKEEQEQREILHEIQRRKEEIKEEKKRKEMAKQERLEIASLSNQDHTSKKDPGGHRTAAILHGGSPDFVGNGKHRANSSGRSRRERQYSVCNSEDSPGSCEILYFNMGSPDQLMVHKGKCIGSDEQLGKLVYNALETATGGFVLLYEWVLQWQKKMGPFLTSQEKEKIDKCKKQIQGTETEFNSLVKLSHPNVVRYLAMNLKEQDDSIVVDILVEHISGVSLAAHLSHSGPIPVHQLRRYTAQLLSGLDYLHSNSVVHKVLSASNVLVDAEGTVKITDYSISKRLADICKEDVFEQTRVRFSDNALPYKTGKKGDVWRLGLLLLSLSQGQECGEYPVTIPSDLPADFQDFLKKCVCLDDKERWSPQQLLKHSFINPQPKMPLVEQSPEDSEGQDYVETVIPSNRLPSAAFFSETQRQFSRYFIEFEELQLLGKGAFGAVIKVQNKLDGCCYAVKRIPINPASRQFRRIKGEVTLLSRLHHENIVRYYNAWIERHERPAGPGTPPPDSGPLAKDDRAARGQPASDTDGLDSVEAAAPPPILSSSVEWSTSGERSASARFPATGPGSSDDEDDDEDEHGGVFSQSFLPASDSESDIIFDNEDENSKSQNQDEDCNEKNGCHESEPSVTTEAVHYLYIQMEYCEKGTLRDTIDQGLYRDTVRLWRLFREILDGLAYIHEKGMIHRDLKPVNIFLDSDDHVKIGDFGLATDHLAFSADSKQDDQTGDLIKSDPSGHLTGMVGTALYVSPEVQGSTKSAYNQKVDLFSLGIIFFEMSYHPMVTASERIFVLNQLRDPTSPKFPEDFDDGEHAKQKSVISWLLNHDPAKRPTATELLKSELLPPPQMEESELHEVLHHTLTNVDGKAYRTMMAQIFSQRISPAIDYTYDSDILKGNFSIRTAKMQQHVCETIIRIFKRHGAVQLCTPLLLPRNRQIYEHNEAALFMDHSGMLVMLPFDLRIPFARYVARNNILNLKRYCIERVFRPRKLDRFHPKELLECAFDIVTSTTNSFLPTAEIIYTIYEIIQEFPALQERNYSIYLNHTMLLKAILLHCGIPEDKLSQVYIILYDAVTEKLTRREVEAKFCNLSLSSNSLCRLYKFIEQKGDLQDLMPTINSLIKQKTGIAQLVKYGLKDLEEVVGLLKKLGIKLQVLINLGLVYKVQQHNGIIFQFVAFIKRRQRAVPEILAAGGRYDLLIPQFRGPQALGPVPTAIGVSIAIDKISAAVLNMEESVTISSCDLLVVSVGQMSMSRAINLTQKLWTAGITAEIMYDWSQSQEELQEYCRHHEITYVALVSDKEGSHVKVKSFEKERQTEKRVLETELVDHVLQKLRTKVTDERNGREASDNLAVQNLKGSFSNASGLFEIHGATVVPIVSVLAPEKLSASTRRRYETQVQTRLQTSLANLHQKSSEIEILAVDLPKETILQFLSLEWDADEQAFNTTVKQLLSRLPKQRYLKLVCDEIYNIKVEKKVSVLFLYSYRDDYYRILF

[12] = target: Tyrosine-protein kinase Srms (Homo sapiens) (UniProt Q9H3Y6); experiment: Selectivity interaction (KinomeScan (DiscoverX)) EUB0000045b SRMS
[13] = target: Glycogen synthase kinase-3 alpha (Homo sapiens, UniProt P49840); experiment: Selectivity interaction (KinomeScan (DiscoverX)) EUB0000695a GSK3A; settings: at 100 nM
[14] = target: Activin receptor type-2A (Homo sapiens) (UniProt P27037); experiment: Selectivity interaction (KinomeScan (DiscoverX)) EUB0000666a ACVR2A; settings: at 10 µM
[15] = target: Protein kinase C beta type (Homo sapiens, UniProt P05771); experiment: Selectivity interaction (ProQinase) EUB0000171b PRKCB; settings: at 5 µM
[16] = target: Mitogen-activated protein kinase 10 (Homo sapiens, UniProt P53779); experiment: Selectivity interaction (KinomeScan (DiscoverX)) EUB0000618a MAPK10; settings: at 10 µM
[17] = target: T1, Ephrin type-A receptor 1 (Homo sapiens) (UniProt P21709); experiment: Selectivity interaction (Kinase panel (Invitrogen)) EUB0000639a EPHA1; settings: at 200 nM
T1 sequence (whole entry): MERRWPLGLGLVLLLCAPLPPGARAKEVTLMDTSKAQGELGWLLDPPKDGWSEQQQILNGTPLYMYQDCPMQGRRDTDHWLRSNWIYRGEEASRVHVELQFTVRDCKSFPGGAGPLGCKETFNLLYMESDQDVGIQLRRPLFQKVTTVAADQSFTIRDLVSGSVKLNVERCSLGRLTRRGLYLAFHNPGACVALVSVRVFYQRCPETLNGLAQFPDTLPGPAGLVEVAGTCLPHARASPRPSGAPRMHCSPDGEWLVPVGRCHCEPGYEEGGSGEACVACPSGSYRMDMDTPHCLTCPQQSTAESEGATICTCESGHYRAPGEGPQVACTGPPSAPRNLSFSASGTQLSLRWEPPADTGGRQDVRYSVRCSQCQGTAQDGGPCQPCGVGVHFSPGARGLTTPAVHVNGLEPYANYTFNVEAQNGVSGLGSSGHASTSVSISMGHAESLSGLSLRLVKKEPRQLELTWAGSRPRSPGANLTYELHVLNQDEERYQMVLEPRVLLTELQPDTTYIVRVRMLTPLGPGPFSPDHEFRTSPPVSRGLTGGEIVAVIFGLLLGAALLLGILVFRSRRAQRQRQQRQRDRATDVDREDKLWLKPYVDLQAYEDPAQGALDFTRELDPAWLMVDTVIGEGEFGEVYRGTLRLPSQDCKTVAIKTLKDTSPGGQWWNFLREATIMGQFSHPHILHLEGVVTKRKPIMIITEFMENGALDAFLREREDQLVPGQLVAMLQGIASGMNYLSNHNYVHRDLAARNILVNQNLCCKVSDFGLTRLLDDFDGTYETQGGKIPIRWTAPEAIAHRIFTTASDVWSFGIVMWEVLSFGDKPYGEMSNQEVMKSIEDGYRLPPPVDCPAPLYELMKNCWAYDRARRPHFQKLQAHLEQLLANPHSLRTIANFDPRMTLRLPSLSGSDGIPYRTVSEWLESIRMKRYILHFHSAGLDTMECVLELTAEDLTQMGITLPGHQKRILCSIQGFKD

[18] = target: Serine/threonine-protein kinase 10 (Homo sapiens) (UniProt O94804); experiment: Selectivity interaction (ActivX KiNativ screen (kinase selectivity in THP-1 cell lysates)) EUB0000639a STK10; format: subcellular; settings: lysate, at 0.01 µM
[19] = target: Mitogen-activated protein kinase kinase kinase kinase 5 (Homo sapiens) (UniProt Q9Y4K4); experiment: Selectivity interaction (ActivX KiNativ screen (kinase selectivity in THP-1 cell lysates)) EUB0000639a MAP4K5; format: subcellular; settings: lysate
Chain of Mitogen-activated protein kinase kinase kinase kinase 5 (Homo sapiens) (Q9Y4K4 whole entry, looked up): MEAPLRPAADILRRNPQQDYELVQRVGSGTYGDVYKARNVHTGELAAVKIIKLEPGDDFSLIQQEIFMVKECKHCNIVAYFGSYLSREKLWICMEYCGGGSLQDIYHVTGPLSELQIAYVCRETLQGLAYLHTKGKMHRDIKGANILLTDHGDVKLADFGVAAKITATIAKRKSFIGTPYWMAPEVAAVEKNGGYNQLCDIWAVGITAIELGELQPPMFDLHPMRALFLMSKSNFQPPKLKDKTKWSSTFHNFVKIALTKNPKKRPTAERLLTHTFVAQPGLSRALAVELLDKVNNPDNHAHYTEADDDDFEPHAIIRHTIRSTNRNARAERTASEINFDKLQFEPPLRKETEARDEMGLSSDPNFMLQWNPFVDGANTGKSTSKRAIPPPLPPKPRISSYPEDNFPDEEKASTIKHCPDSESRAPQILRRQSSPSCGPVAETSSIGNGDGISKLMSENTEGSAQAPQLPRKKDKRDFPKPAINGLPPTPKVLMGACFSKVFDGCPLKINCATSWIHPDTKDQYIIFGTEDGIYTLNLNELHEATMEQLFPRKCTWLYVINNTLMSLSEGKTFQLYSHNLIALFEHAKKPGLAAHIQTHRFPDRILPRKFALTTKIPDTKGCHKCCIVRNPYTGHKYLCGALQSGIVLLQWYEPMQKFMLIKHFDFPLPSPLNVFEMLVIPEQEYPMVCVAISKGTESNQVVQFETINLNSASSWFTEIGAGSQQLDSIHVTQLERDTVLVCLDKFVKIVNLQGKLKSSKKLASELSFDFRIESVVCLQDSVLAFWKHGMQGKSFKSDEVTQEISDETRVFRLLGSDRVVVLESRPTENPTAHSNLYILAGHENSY

C=CC(=O)Nc1ccc(C(=O)Nc2[nH]nc3c2CN(C(=O)N[C@H](CN(C)C)c2ccccc2)C3(C)C)cc1
% of engagement [1]: -8.9%

C=CC(=O)Nc1cc(-n2c(=O)ccc3cnc4ccc(-c5ccc(NS(C)(=O)=O)cc5)cc4c32)ccc1C
% of control ([2]; at 1 µM): 100%
% of control ([2]; at 10 µM): 100%
% of control ([3]; at 1 µM): 11%
% of control ([3]; at 10 µM): 2.1%
% of control ([4]; at 1 µM): 82%
% of control ([4]; at 10 µM): 25%
% of control ([5]; at 1 µM): 95%
% of control ([5]; at 10 µM): 50%
% of control ([6]; at 1 µM): 100%
% of control ([6]; at 10 µM): 32%
% of control ([7]; at 1 µM): 73%
% of control ([7]; at 10 µM): 90%
% of control ([8]; at 1 µM): 100%
% of control ([8]; at 10 µM): 44%
% of control ([9]; at 1 µM): 40%
% of control ([9]; at 10 µM): 45%
% of control ([10]; at 1 µM): 90%
% of control ([10]; at 10 µM): 85%
% of control ([11]; at 1 µM): 100%
% of control ([11]; at 10 µM): 84%
% of control ([12]; at 1 µM): 100%
% of control ([12]; at 10 µM): 100%

Cc1cc(F)c(C(=O)Nc2cccc(-c3nncn3C(C)C)n2)cc1-n1cnc(C2CC2)c1
% of control [13]: 80%

O=C(NOC[C@H](O)CO)c1ccc(F)c(F)c1Nc1ccc(I)cc1F
% of control [14]: 80%

C=CC(=O)Nc1cccc(C(=O)Nc2ccc(Nc3cc(-c4[nH]c(SC)nc4C)ccn3)cc2)c1
% of control [15]: 81%

O[C@H]1CC[C@H](Nc2ncc3nc(Nc4c(F)cc(F)cc4F)n([C@H]4CCOC4)c3n2)CC1
% of control [16]: 0%

CC[C@@H]1[C@H](F)C(=O)N[C@@H]1COc1nccc2cc(C(N)=O)c(OC)cc12 [ZIMLOVISERTIB]
% of inhibition [17]: 4.58%
% of inhibition [18]: -34.8%
% of inhibition ([19]; at 0.01 µM): -0.9%
% of inhibition ([19]; at 0.04 µM): 0%
% of inhibition ([19]; at 0.2 µM): 3.2%
% of inhibition ([19]; at 1 µM): 9.9%
% of inhibition ([19]; at 5 µM): 11.8%
